For `CCS(=O)(=O)N1CCC(NC(=O)Nc2ccc(OC(F)(F)F)cc2)CC1`, the melting point (in general, the temperature of the solid-liquid transition) lay in the range of 235 to 239 °C.
As for `COc1nc(=O)c(Cc2ccc(C)nc2)c[nH]1`, the melting point fell in the range of 145 to 147 °C.
`Cc1cc(F)cc2nc(Cl)c(Cl)nc12` registered a melting point of 116 to 120 °C.
In turn, `COC1CC(C)(C)C(O)C(OC(=O)c2ccccc2)C=C1C` (configuration not stated) came in with a melting point of 98 to 99 °C.
With `CC(C)c1ccc(/C=C/C(=O)/C=C/c2ccccc2)cc1` the figure was 76 to 78 °C; with `OCCCCc1n[nH]c2ccc(C(F)(F)F)cc12`, 74 to 76 °C; with `O=C(O)CON=CCBr`, 56 to 58 °C.
For `Cc1c(F)c(F)c(COC(=O)[C@@H]2[C@@H](C=O)C2(C)C)c(F)c1F` the value was 43.2 °C.
As for `CC(C)n1nc(-c2cnc(Nc3ccccc3)nc2-c2ccccc2)ccc1=O`, the melting point lay in the range of 200 to 202 °C.
For `CC1(C)COC(c2ccc(S)cc2)OC1` the value was 134 to 136 °C; for `COc1cc(N)c(Cl)cc1C(=O)NCC1CCN(CCCCCNCc2cccs2)CC1`, 67 to 69 °C.
`CC(C)c1cccc(C(C)C)c1NC(=O)C(Cc1ccc(OCc2ccccc2)cc1)NC(=O)CC(C)(C)C` (configuration not stated) yielded a melting point of 209 to 212 °C.
Compound `CC=CC(=O)c1c(CCC)[nH]c2cc(C(=O)OC)ccc12` had a melting point of 153 to 154 °C.
With `CN(C=O)c1cc(F)ccc1C(=O)CS(C)(=O)=O`, the melting point lay within 94.5 to 95.5 °C.
As to `CC(=O)OC1C(CO)OC(NC(=O)N(CCCl)N=O)C(OC(C)=O)C1OC(C)=O` (configuration not stated), the melting point lay in the range of 143 to 144 °C.
Compound `Cc1c(C(=O)Nc2ccc(N3CCN(C4CCOCC4)CC3)c(C#N)c2)cnn1-c1ccccc1` showed a melting point of 227 °C.
As to `CC(C)S(=O)(=O)c1ccc(Oc2ccc([N+](=O)[O-])c(NCCC#N)c2)c(Cl)c1`, the melting point came out at 140 °C.
As for `CCOC(=O)C1=CC(C(=O)c2cc(Cl)c(C)cc2O)=CN2CCc3c([nH]c4ccccc34)C12C(=O)OCC` (configuration not stated), the melting point came to 196 °C.
For `c1ccc2c(c1)CC(CN1CCC(c3c[nH]c4ccccc34)CC1)C2` the value was 146 to 147 °C.
For `O=C(O)c1ccc(-c2ccn(-c3ccc(C(F)(F)F)cc3)c2)cc1` the value was 315 to 317 °C; for `CNc1ccccc1C(=O)NCCCn1ccnc1`, 138 to 141 °C; for `NCCc1ccc(OCCC(c2ccc(Cl)cc2)(c2ccc(Cl)cc2)c2ccc(Cl)cc2)cc1`, 132 to 135 °C.
With `C=CCOc1cc2c(cc1C=CC)N(CC=C(C)C)C(=O)CC2` the figure was 87 to 88 °C.
For the compound `C=C(c1cn(-c2c(Cl)cc(C(F)(F)F)cc2Cl)nc1C#N)C(F)(F)Cl`, the melting point fell in the range of 113 to 114 °C.
For `Cc1c(OCC(F)(F)F)ccnc1CSc1nc2ccccc2[nH]1` the value was 142 to 144 °C; for `O=S(=O)(c1ccccc1)N1CCC(Nc2nc(Cl)nc(N3CCCC3)n2)CC1`, 184 to 186 °C.
On to `O=c1oc(Nc2ccc(Oc3ccccc3)cc2)nc2sccc12`, for which the melting point fell in the range of 206 to 210 °C.
For `CC(C)n1nc(-c2c(NCCN(C)C)nc(N)nc2-c2ccccc2)ccc1=O` the value was 164 to 166 °C.
With `CC1(C)Cc2cccc(OCCCBr)c2O1` the figure was 54 to 56 °C; with `CCN1c2ncccc2C(N(C)C)=Nc2c(C)cc(C)nc21`, 150 to 152 °C.
`CCc1cccc(C)c1CNc1nc(Br)cc(N)c1[N+](=O)[O-]` came in with a melting point of 126 to 128 °C.
With `CC(C)CCNC(=O)c1ccccc1-c1ccccc1CNC(=O)c1ccccc1` the figure was 147 °C.
As to `COc1ccc(CC#N)c2c1OCCO2`, the melting point is 121 to 125 °C.
For `COc1c(CC(=O)O)cccc1Oc1ccccc1Cl` the value was 87 to 92 °C.
`COC(=O)c1ccc(Cl)cc1C(=O)c1ccccc1F`: the melting point lay in the range of 115 to 116 °C.
`O=C(O)c1ccc(-c2nc(-c3ccc(F)cc3)c(-c3ccncc3)[nH]2)cc1` registered a melting point of 289 to 290 °C.
Consider `CNC(CC(C)C)c1nc(-c2ccc3c(c2)Nc2ccccc2S3)cs1` (configuration not stated), for which the melting point was 146 to 148 °C.
For `COc1ccc2c(=O)[nH]nc(C)c2c1` the value was 252 to 254 °C.
The compound `CCCCCCCCCCCCCCCCOC(=O)c1cc(C(=O)OCCCCCCCCCCCCCCCC)cc(S(=O)(=O)O)c1` yielded a melting point of 63 to 65 °C.
`CC(C)C(NC(=O)c1ccc(C(=O)NCC(=O)O)cc1)C(=O)N(CC(=O)NC(C(=O)C(F)(F)F)C(C)C)C1Cc2ccccc2C1` (mixture of isomers) returned a melting point of 88 to 91 °C.
Compound `O=C(Oc1ccc2c(c1)OC=C(C(=O)N1CCN(C(c3ccc(F)cc3)c3ccc(F)cc3)CC1)O2)c1cccnc1` came in with a melting point of 142 °C.
The compound `NNC(=O)c1cnc2n(c1=O)CCC2` yielded a melting point of 180 to 181 °C.
`CN(C)C1=C(C#N)C(c2ccc(Cl)c([N+](=O)[O-])c2)c2ccc3ccccc3c2O1` (configuration not stated) returned a melting point of 218 °C.
Consider `CC(=O)Nc1nc(-c2cc(C)cc(C)c2)c(-c2ccncc2)s1`, for which the melting point fell in the range of 284 to 286 °C.
The compound `CCCCCc1nc2ccccc2[nH]1` registered a melting point of 161 to 162 °C.
Compound `COc1ccc2nc(C(=O)NCC(=O)O)c(OCc3ccccc3)cc2c1` showed a melting point of 118 °C.
`Cc1c(C(N)=O)oc2c(C(=O)O)cccc2c1=O`: the melting point is greater than 250 °C.
For `COc1cccc(OS(=O)(=O)c2ccc(N3CCN(C)C3=O)cc2)c1` the value was 111 to 113 °C; for `O=C(Nc1nnc(CC2CC2)o1)C1c2ccccc2Oc2ccccc21`, 140 to 141 °C.
Compound `COc1c(C(=O)O)nc(N2CCCCS2(=O)=O)n(C)c1=O` showed a melting point of 180 to 181 °C.
`CCN(CC)C(=O)COC(=O)c1ccc(N)cc1`: the melting point lay in the range of 135 to 136 °C.
With `CS(=O)(=O)NC(=O)NCCCCC1CCSS1` (configuration not stated) the figure was 125 to 127 °C; with `NCc1ccn(C2=CC3=C(CC2)CCc2[nH]c(=O)c(=O)n(OCC(=O)O)c23)c1`, greater than 300 °C; with `CCCCC1(CCCC)NC(c2nc(-c3ccccc3)cs2)Cc2c1[nH]c1ccccc21` (configuration not stated), 134 to 136 °C.
With `Cc1nc2c(OCc3ccccc3)cc(C(=O)N(C)C)cc2n1COCC[Si](C)(C)C` the figure was 118 to 120 °C; with `O=c1[nH]nnn1-c1cc(C(F)(F)F)cc(C(F)(F)F)c1`, 145 to 147 °C; with `O=C1c2ccc(Cl)cc2C(=O)N1c1ccc([N+](=O)[O-])cc1CI`, 183 to 187 °C.
With `CC(C)c1c(Oc2ccccc2)n(COCc2ccccc2)c(=O)[nH]c1=O` the figure was 118 °C.
For `CC(C)c1ccnc(C(C)C)c1N`, the melting point lay in the range of 35 to 39 °C.
`NS(=O)(=O)c1cccc(-c2cccc(-c3nc(-c4ccc(C(F)(F)F)c(F)c4)cc(C(F)(F)F)n3)c2)c1` yielded a melting point of 228 °C.
Consider `CCNC(=O)n1nc(Oc2ccc([N+](=O)[O-])cc2C(F)(F)F)cc1C`, for which the melting point lay in the range of 95 to 97 °C.
For `Cc1ccc(S(=O)(=O)c2ccc3c(c2)CCCC3)cc1` the value was 130 to 132 °C; for `O=Cc1ccc2c(ccc3c4ccccc4ccc23)c1`, 215 to 216 °C.
For `CN(C)c1nc2cc(Br)ccn2n1` the value was 133 to 134 °C; for `Cc1cc(C(=O)N2Cc3cccn3Cc3ccccc32)ccc1C1=CCCCC1`, 173 to 175 °C.
For `O=P(O)(O)C(Cc1cnsn1)P(=O)(O)O` the value was greater than 300 °C.
The compound `CC12CCC(C1)C1(C)Oc3ccc(C(=O)c4ccc(C=CC(=O)O)cc4)cc3C21C` (configuration not stated) displayed a melting point of 242 to 243 °C.
For the compound `O=C(O)C1CCCn2c(=O)n(CS)c(=O)n21` (configuration not stated), the melting point came to 158 °C.
The compound `C[C@H](Oc1c(I)c(C(=O)NC(CO)CO)c(I)c(C(=O)NC(CO)CO)c1I)C(N)=O` displayed a melting point of 110 °C.
For `COC(=O)c1cccc2nc(N3CCCCC3)n(Cc3ccc(-c4ccccc4-c4nnn[nH]4)cc3)c12` the value was 146 to 150 °C; for `CN(C(=O)Cc1csc(N)n1)c1ccc(Cl)cc1`, 148 to 150 °C.
As to `Nc1cc([N+](=O)[O-])ccc1Nc1cccc(-c2nccs2)c1`, the melting point was 146 to 159 °C.
`CCCCN(CCCC)C(=S)Nc1ccc(NNC=O)cc1` came in with a melting point of 139 to 141 °C.
`CN(C)C=Nc1nc(=O)n(-c2ccsc2)cc1F` displayed a melting point of 211 to 213 °C.
For `COc1cc(N)c(N)cc1C(N)=O` the value was 181 to 183 °C; for `COc1ccc2c(c1)C(C)(C)NC2=O`, 146 to 147 °C; for `CN1C(=O)CN=C(c2ccccc2F)c2cc(CCN)ccc21`, 125 °C.
With `Cc1ccc(S(=O)(=O)Sc2cc(C)c(CO)cc2C(C)(C)C)cc1` the figure was 121 to 122 °C; with `O=C1c2ccccc2C(=O)N1OCc1cc[nH]n1`, 166 to 168 °C; with `Cn1nc(C(F)(F)F)c(C(O)=C(Br)n2ccc(-c3c(F)cccc3F)n2)c1Cl`, 123 to 125 °C.
With `CCOC(=O)COc1cccc2c1OCCC2=O` the figure was 56 to 66 °C; with `CC(C)N=C(NC(C)C)ON=C1CCCCC1`, 45 to 48 °C.
Turning to `O=C(Nc1ccc(OCCN2CCCC2=O)c2ccccc12)c1cc(F)cc(N2CCOCC2)c1`, the melting point lay within 172 to 173 °C.
With `O=c1[nH][nH]c2c1c(O)nc1cc(Cl)c(Cl)cc12` the figure was greater than 350 °C.
For `C/C(=C\c1ccc(C(=O)O)cc1)c1cc2c(s1)C(C)(C)CCC2(C)C` the value was 236 to 238 °C; for `O=c1[nH]c2ncc(-c3ccc(-c4ncc[nH]4)cc3)nc2n1CC1CCCCC1`, 349 to 351 °C.
With `O=C(O)c1ccc(-c2cnc3c(O)ncnc3n2)cc1` the figure was greater than 300 °C; with `CS(=O)(=O)c1c(N)nc(N)nc1Cl`, 256 to 258 °C.
Turning to `COc1ccc(Nc2ccnc(F)c2)cc1`, the melting point is 150 °C.
With `CC(=O)NC1CCC2=C(CC1)C(=O)CC=C2` (configuration not stated) the figure was 115 to 116 °C; with `Cn1cncc1C(O)(c1ccc(C(=O)O)cc1)c1ccc2c(c1)c(-c1cccc(Cl)c1)cc(=O)n2C` (configuration not stated), greater than 260 °C.
For `O=C(c1ccc(O)c(Cl)c1)N1CC=CCC1` the value was 186 to 189 °C.
